Laboratory results taken from ChEMBL document CHEMBL1201862, “PubChem BioAssay data set” (2004).
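Briefly, cells in 96-well plates were exposed to five compound concentrations for 48 h, and endpoints were estimated by linear interpolation. Abbreviation: GI50, concentration required for 50% inhibition of growth.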 Active and inactive are the calls of the source. Cut-off read from the data, not from the text of the source: active = GI50 up to about 1.1 µM and inactive = higher.

Tests used:
Test in all cases: inhibition of tumour cell growth, NCI panel, 48 h
ACHN = system: ACHN
RXF 393 = system: RXF 393
Hs-578T = system: Hs-578T
DU-145 = system: DU-145
SK-OV-3 = system: SK-OV-3
U-251 = system: U-251
A549 = system: A549
SK-MEL-28 = system: SK-MEL-28
HCC 2998 = system: HCC 2998
PC-3 = system: PC-3
HT-29 = system: HT-29
OVCAR-5 = system: OVCAR-5
UO-31 = system: UO-31
MDA-N = system: MDA-N
LOX IMVI = system: LOX IMVI
HOP-92 = system: HOP-92
HCT-116 = system: HCT-116
K562 = system: K562
IGROV-1 = system: IGROV-1
Malme-3M = system: Malme-3M
COLO 205 = system: COLO 205
NCI-H23 = system: NCI-H23
EKVX = system: EKVX
OVCAR-8 = system: OVCAR-8
NCI-H460 = system: NCI-H460
MOLT-4 = system: MOLT-4
SF-539 = system: SF-539
NCI-H522 = system: NCI-H522
SF-295 = system: SF-295
TK-10 = system: TK-10
CAKI-1 = system: CAKI-1
T47D = system: T47D
MDA-MB-231 = system: MDA-MB-231
KM12 = system: KM12
HCT-15 = system: HCT-15
UACC-62 = system: UACC-62
SK-MEL-5 = system: SK-MEL-5
BT-549 = system: BT-549
786-0 = system: 786-0
SW-620 = system: SW-620
SK-MEL-2 = system: SK-MEL-2
M14 = system: M14
SNB-19 = system: SNB-19
UACC-257 = system: UACC-257
MCF7 = system: MCF7
OVCAR-4 = system: OVCAR-4
CCRF-CEM = system: CCRF-CEM
SF-268 = system: SF-268
MDA-MB-435 = system: MDA-MB-435
OVCAR-3 = system: OVCAR-3
A498 = system: A498
HOP-62 = system: HOP-62
RPMI-8226 = system: RPMI-8226
NCI/ADR-RES = system: NCI/ADR-RES
SN12C = system: SN12C
NCI-H226 = system: NCI-H226
SNB-75 = system: SNB-75
HL-60 = system: HL-60

CC(=O)O[C@H]1C[C@](C)(O)[C@@]23CC([C@@H](OC(=O)C(C)(C)O)[C@@H](OC(C)=O)C2(COC(=O)c2ccccc2)[C@H]1OC(C)=O)C(C)(C)O3 (stereo partly specified)
GI50 (ACHN): > 100 µM (inactive)
GI50 (RXF 393): > 100 µM (inactive)
GI50 (Hs-578T): > 100 µM (inactive)
GI50 (DU-145): > 100 µM (inactive)
GI50 (SK-OV-3): > 100 µM (inactive)
GI50 (U-251): 33.4 µM (inactive)
GI50 (A549): 47.8 µM (inactive)
GI50 (SK-MEL-28): > 100 µM (inactive)
GI50 (HCC 2998): > 100 µM (inactive)
GI50 (PC-3): 44 µM (inactive)
GI50 (HT-29): > 100 µM (inactive)
GI50 (OVCAR-5): > 100 µM (inactive)
GI50 (UO-31): > 100 µM (inactive)
GI50 (MDA-N): > 100 µM (inactive)
GI50 (LOX IMVI): 61.5 µM (inactive)
GI50 (HOP-92): 60.3 µM (inactive)
GI50 (HCT-116): > 100 µM (inactive)
GI50 (K562): 50 µM (inactive)
GI50 (IGROV-1): > 100 µM (inactive)
GI50 (Malme-3M): > 100 µM (inactive)
GI50 (COLO 205): > 100 µM (inactive)
GI50 (NCI-H23): > 100 µM (inactive)
GI50 (EKVX): > 100 µM (inactive)
GI50 (OVCAR-8): > 100 µM (inactive)
GI50 (NCI-H460): > 100 µM (inactive)
GI50 (MOLT-4): 31.4 µM (inactive)
GI50 (SF-539): > 100 µM (inactive)
GI50 (NCI-H522): 67.1 µM (inactive)
GI50 (SF-295): 84.3 µM (inactive)
GI50 (TK-10): > 100 µM (inactive)
GI50 (CAKI-1): > 100 µM (inactive)
GI50 (T47D): > 100 µM (inactive)
GI50 (MDA-MB-231): 16.8 µM (inactive)
GI50 (KM12): 78.5 µM (inactive)
GI50 (HCT-15): > 100 µM
GI50 (UACC-62): > 100 µM (inactive)
GI50 (SK-MEL-5): 77.6 µM (inactive)
GI50 (BT-549): > 100 µM (inactive)
GI50 (786-0): > 100 µM (inactive)
GI50 (SW-620): > 100 µM (inactive)
GI50 (SK-MEL-2): 86.5 µM (inactive)
GI50 (M14): 55.5 µM (inactive)
GI50 (SNB-19): > 100 µM (inactive)
GI50 (UACC-257): > 100 µM (inactive)
GI50 (MCF7): 50.9 µM (inactive)
GI50 (OVCAR-4): > 100 µM (inactive)
GI50 (CCRF-CEM): 41.1 µM (inactive)
GI50 (SF-268): > 100 µM (inactive)
GI50 (MDA-MB-435): > 100 µM (inactive)
GI50 (OVCAR-3): 78.9 µM (inactive)
GI50 (A498): > 100 µM (inactive)
GI50 (HOP-62): > 100 µM (inactive)
GI50 (RPMI-8226): 23.6 µM (inactive)
GI50 (NCI/ADR-RES): > 100 µM (inactive)
GI50 (SN12C): > 100 µM (inactive)

CCOC(=O)C1=CN2C(=N[C@H]3CCCC[C@@H]32)NC1=O
GI50 (ACHN): > 100 µM (inactive)
GI50 (Hs-578T): > 100 µM (inactive)
GI50 (DU-145): > 100 µM (inactive)
GI50 (SK-OV-3): > 100 µM (inactive)
GI50 (U-251): > 100 µM (inactive)
GI50 (A549): > 100 µM (inactive)
GI50 (SK-MEL-28): > 100 µM (inactive)
GI50 (HCC 2998): > 100 µM (inactive)
GI50 (PC-3): > 100 µM (inactive)
GI50 (HT-29): > 100 µM (inactive)
GI50 (OVCAR-5): > 100 µM (inactive)
GI50 (UO-31): > 100 µM (inactive)
GI50 (MDA-N): > 100 µM (inactive)
GI50 (LOX IMVI): > 100 µM (inactive)
GI50 (NCI-H226): > 100 µM (inactive)
GI50 (HOP-92): > 100 µM (inactive)
GI50 (HCT-116): > 100 µM (inactive)
GI50 (K562): > 100 µM (inactive)
GI50 (IGROV-1): > 100 µM (inactive)
GI50 (Malme-3M): > 100 µM (inactive)
GI50 (COLO 205): > 100 µM (inactive)
GI50 (NCI-H23): > 100 µM (inactive)
GI50 (SNB-75): > 100 µM (inactive)
GI50 (EKVX): > 100 µM (inactive)
GI50 (OVCAR-8): > 100 µM (inactive)
GI50 (NCI-H460): > 100 µM (inactive)
GI50 (MOLT-4): > 100 µM (inactive)
GI50 (SF-539): > 100 µM (inactive)
GI50 (NCI-H522): > 100 µM (inactive)
GI50 (SF-295): > 100 µM (inactive)
GI50 (TK-10): > 100 µM (inactive)
GI50 (CAKI-1): > 100 µM (inactive)
GI50 (T47D): > 100 µM (inactive)
GI50 (MDA-MB-231): > 100 µM (inactive)
GI50 (KM12): > 100 µM (inactive)
GI50 (HCT-15): > 100 µM
GI50 (UACC-62): > 100 µM (inactive)
GI50 (SK-MEL-5): > 100 µM (inactive)
GI50 (BT-549): > 100 µM (inactive)
GI50 (786-0): > 100 µM (inactive)
GI50 (SW-620): > 100 µM (inactive)
GI50 (SK-MEL-2): > 100 µM (inactive)
GI50 (M14): > 100 µM (inactive)
GI50 (SNB-19): > 100 µM (inactive)
GI50 (UACC-257): > 100 µM (inactive)
GI50 (MCF7): > 100 µM (inactive)
GI50 (OVCAR-4): > 100 µM (inactive)
GI50 (CCRF-CEM): > 100 µM (inactive)
GI50 (SF-268): > 100 µM (inactive)
GI50 (MDA-MB-435): > 100 µM (inactive)
GI50 (OVCAR-3): > 100 µM (inactive)
GI50 (A498): > 100 µM (inactive)
GI50 (RPMI-8226): > 100 µM (inactive)
GI50 (HL-60): > 100 µM (inactive)
GI50 (NCI/ADR-RES): > 100 µM (inactive)
GI50 (SN12C): > 100 µM (inactive)
